In patent publication US9523100B2, “Pesticidal compositions and related methods” (DOW AGROSCIENCES LLC, priority 2013, dated 2016):
Read-outs that look alike come from different tables or passages of the source.

Key:
[1] = system: Green Peach Aphid (GPA) (Myzus persicae) (MYZUPE); assay: Bioassay for Green Peach Aphid (GPA), foliar spray on cabbage seedlings; format: in vivo; details: 72 h, read-out: GPA 200 ppm, % Control (or Mortality) rating
Method in brief: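 Cabbage seedlings infested with 20-50 GPA (wingless adults and nymphs) one day before spraying to runoff with 200 ppm compound; four pots per treatment. Live aphids counted after three days at ~25° C; percent control by Abbott's correction against solvent-sprayed plants.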

[2] = system: Sweetpotato Whitefly-Crawler (WF) (Bemisia tabaci) (BEMITA); assay: Insecticidal test for Sweetpotato Whitefly-Crawler (WF) in foliar spray assay on cotton plants; format: in vivo; details: 216 h, read-out: WF 200 ppm, % Control (or Mortality) rating
Method in brief: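 Cotton plants carrying 200–400 whitefly eggs sprayed to run-off on both leaf surfaces at 200 ppm (acetone/0.025% Tween 20), four plants per treatment. After 9 days at about 25 °C, live 3rd–4th instar nymphs counted; Abbott-corrected percent control versus solvent check.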

[3] = 200 ppm foliar spray on cabbage seedlings, graded after three days, Abbott corrected % control
[4] = 200 ppm foliar spray on cotton plants, graded after 9 days, Abbott corrected % control

CC(C)(C)[Si](C)(C)N1CC(CCCC(=O)O)C1=O (stereo not shown) [Compound C5, 4-(1-(tert-Butyldimethylsilyl)-2-oxoazetidin-3-yl)butanoic acid]
mortality at 200 ppm ([1]; foliar): 0 to 80%
mortality at 200 ppm ([2]; foliar): < 0%

CCN(C(=O)CCN1CCOC1=O)c1cn(-c2cccnc2)nc1Cl [Compound F69, N-(3-Chloro-1-(pyridin-3-yl)-1H-pyrazol-4-yl)-N-ethyl-3-(2-oxooxazolidin-3-yl)propanamide]
mortality at 200 ppm [1, 3]: 80 to 100%
mortality at 200 ppm [2, 4]: 80 to 100%

CCN(C(=O)CCC1CCN(C(=O)OC(C)(C)C)C1=O)c1cn(-c2cccnc2)nc1Cl (stereo not shown) [Compound F128, tert-butyl 3-(3-((3-chloro-1-(pyridin-3-yl)-1H-pyrazol-4-yl)(ethyl)amino)-3-oxopropyl)-2-oxopyrrolidine-1-carboxylate]
mortality at 200 ppm [1, 3]: 80 to 100%
mortality at 200 ppm [2, 4]: 80 to 100%

CCN(C(=O)C(C)N(C)C(=O)CC(F)(F)F)c1cn(-c2cccnc2)nc1Cl (stereo not shown) [Compound F66, N-(1-((3-Chloro-1-(pyridin-3-yl)-1H-pyrazol-4-yl)(ethyl)amino)-1-oxopropan-2-yl)-3,3,3-trifluoro-N-methylpropanamide]
mortality at 200 ppm [1, 3]: 80 to 100%
mortality at 200 ppm [2, 4]: 80 to 100%

CON=C(C)CCC(=O)N(C)c1cn(-c2cccnc2)nc1Cl (mixture of isomers) [Compound F60, (E/Z)-N-(3-Chloro-1-(pyridin-3-yl)-1H-pyrazol-4-yl)-4-(methoxyimino)-N-methylpentanamide]
mortality at 200 ppm [1, 3]: 80 to 100%
mortality at 200 ppm [2, 4]: 80 to 100%

CN(C(=O)CCN1CCOC1=O)c1cn(-c2cccnc2)nc1Cl [Compound F31, N-(3-chloro-1-(pyridin-3-yl)-1H-pyrazol-4-yl)-N-methyl-3-(2-oxooxazolidin-3-yl)propanamide]
mortality at 200 ppm [1, 3]: 80 to 100%
mortality at 200 ppm [2, 4]: 80 to 100%

CCN(C(=O)CCC(=O)NCC1CCCCC1)c1cn(-c2cccnc2)nc1Cl [Compound F15, N1-(3-Chloro-1-(pyridin-3-yl)-1H-pyrazol-4-yl)-N4-(cyclohexylmethyl)-N1-ethylsuccinamide]
mortality at 200 ppm [1, 3]: 0 to 80%
mortality at 200 ppm [2, 4]: 80 to 100%

CN(C(=O)CN1CCSC1=O)c1cn(-c2cccnc2)nc1Cl [Compound F7, N-(3-Chloro-1-(pyridin-3-yl)-1H-pyrazol-4-yl)-N-methyl-2-(2-oxothiazolidin-3-yl)acetamide]
mortality at 200 ppm [1, 3]: 0 to 80%
mortality at 200 ppm [2, 4]: 80 to 100%

CCN(C(=O)CCNC)c1cn(-c2cccnc2)nc1Cl [Compound C11, N-(3-chloro-1-(pyridin-3-yl)-1H-pyrazol-4-yl)-N-ethyl-3-(methylamino)propanamide]
mortality at 200 ppm [1, 3]: 0 to 80%
mortality at 200 ppm [2, 4]: 80 to 100%

CCN(C(=O)CCC(=O)N1CCCCC1)c1cn(-c2cccnc2)nc1Cl [Compound F21, N-(3-Chloro-1-(pyridin-3-yl)-1H-pyrazol-4-yl)-N-ethyl-4-oxo-4-(piperidin-1-yl)butanamide]
mortality at 200 ppm [1, 3]: 0 to 80%
mortality at 200 ppm [2, 4]: 80 to 100%

CCN(C(=O)CN1CCOC1=O)c1cn(-c2cccnc2)nc1Cl [Compound F48, N-(3-Chloro-1-(pyridin-3-yl)-1H-pyrazol-4-yl)-N-ethyl-2-(2-oxooxazolidin-3-yl)acetamide]
mortality at 200 ppm [1, 3]: 80 to 100%
mortality at 200 ppm [2, 4]: 80 to 100%

CCN(C(=O)CC1CCN(CC(F)(F)F)C1=O)c1cn(-c2cccnc2)nc1Cl (stereo not shown) [FA65, N-(3-Chloro-1-(pyridin-3-yl)-1H-pyrazol-4-yl)-N-ethyl-2-(2-oxo-1-(2,2,2-trifluoroethyl)pyrrolidin-3-yl)acetamide]
mortality at 200 ppm [1, 3]: 80 to 100%
mortality at 200 ppm [2, 4]: 80 to 100%

CCN(C(=O)CCC(=O)N(C)CC1CC1)c1cn(-c2cccnc2)nc1Cl [Compound F30, N1-(3-Chloro-1-(pyridin-3-yl)-1H-pyrazol-4-yl)-N4-(cyclopropylmethyl)-N1-ethyl-N4-methylsuccinamide]
mortality at 200 ppm [1, 3]: 80 to 100%
mortality at 200 ppm [2, 4]: 80 to 100%

CN(C(=O)Cn1ccccc1=O)c1cn(-c2cccnc2)nc1Cl [Compound F3, N-(3-Chloro-1-(pyridin-3-yl)-1H-pyrazol-4-yl)-N-methyl-2-(2-oxopyridin-1(2H)-yl)acetamide]
mortality at 200 ppm [1, 3]: 80 to 100%
mortality at 200 ppm [2, 4]: 80 to 100%

CCN(C(=O)CC/C(=N/OCCCCC(F)(F)F)c1cccs1)c1cn(-c2cccnc2)nc1Cl [FA29, (Z)-N-(3-Chloro-1-(pyridin-3-yl)-1H-pyrazol-4-yl)-N-ethyl-4-(thiophen-2-yl)-4-(((5,5,5-trifluoropentyl)oxy)imino)butanamide]
mortality at 200 ppm [1, 3]: 0 to 80%
mortality at 200 ppm [2, 4]: 80 to 100%

CCN(C(=O)CCC1CCNC1=O)c1cn(-c2cccnc2)nc1Cl (stereo not shown) [Compound F131, N-(3-chloro-1-(pyridin-3-yl)-1H-pyrazol-4-yl)-N-ethyl-3-(2-oxopyrrolidin-3-yl)propanamide]
mortality at 200 ppm [1, 3]: 80 to 100%
mortality at 200 ppm [2, 4]: 80 to 100%

O=C(CCC(=O)N(CC1CC1)c1cn(-c2cccnc2)nc1Cl)N1CCCCCC1 [Compound F18, 4-(Azepan-1-yl)-N-(3-chloro-1-(pyridin-3-yl)-1H-pyrazol-4-yl)-N-(cyclopropylmethyl)-4-oxobutanamide]
mortality at 200 ppm [1, 3]: 0 to 80%
mortality at 200 ppm [2, 4]: 80 to 100%

CCN(C(=O)CC/C(C)=N\O)c1cn(-c2cccnc2)nc1Cl [FA46, (Z)-N-(3-Chloro-1-(pyridin-3-yl)-1H-pyrazol-4-yl)-N-ethyl-4-(hydroxyimino)pentanamide]
mortality at 200 ppm [1, 3]: 0 to 80%
mortality at 200 ppm [2, 4]: 80 to 100%

CCN(C(=O)CC(C)=O)c1cn(-c2cccnc2)nc1Cl [FA66, N-(3-chloro-1-(pyridin-3-yl)-1H-pyrazol-4-yl)-N-ethyl-3-oxobutanamide]
mortality at 200 ppm [1, 3]: 80 to 100%
mortality at 200 ppm [2, 4]: 80 to 100%

CCN(C(=O)CC/C(C)=N/Oc1cccc(C(F)(F)F)n1)c1cn(-c2cccnc2)nc1Cl [Compound F59, (E/Z)-N-(3-Chloro-1-(pyridin-3-yl)-1H-pyrazol-4-yl)-N-ethyl-4-(((6-(trifluoromethyl)pyridin-2-yl)oxy)imino)pentanamide]
mortality at 200 ppm [1, 3]: 80 to 100%
mortality at 200 ppm [2, 4]: 80 to 100%

CCN(C(=O)CC/C(C)=N/Oc1cc(C(F)(F)F)ccn1)c1cn(-c2cccnc2)nc1Cl [Compound F36, (E/Z)-N-(3-Chloro-1-(pyridin-3-yl)-1H-pyrazol-4-yl)-N-ethyl-4-(((4-(trifluoromethyl)pyridin-2-yl)oxy)imino)pentanamide]
mortality at 200 ppm [1, 3]: 80 to 100%
mortality at 200 ppm [2, 4]: 80 to 100%

CCN(C(=O)CCN(C)C(=O)OC(C)(C)C)c1cn(-c2cccnc2)nc1Cl [Compound F52, tert-Butyl (3-((3-chloro-1-(pyridin-3-yl)-1H-pyrazol-4-yl)(ethyl)amino)-3-oxopropyl)(methyl) carbamate]
mortality at 200 ppm ([1]; foliar): 80 to 100%
mortality at 200 ppm ([2]; foliar): 80 to 100%

CCN(C(=O)CCN(C)C(=O)N(C)C)c1cn(-c2cccnc2)nc1Cl [Compound F121, N-(3-Chloro-1-(pyridin-3-yl)-1H-pyrazol-4-yl)-N-ethyl-3-(1,3,3-trimethylureido)propanamide]
mortality at 200 ppm [1, 3]: 80 to 100%
mortality at 200 ppm [2, 4]: 80 to 100%

CCN(C(=O)C(C)C/C=N\OCCC1CC1(F)F)c1cn(-c2cccnc2)nc1Cl (stereo not shown) [FA59, (Z)-N-(3-Chloro-1-(pyridin-3-yl)-1H-pyrazol-4-yl)-4-((2-(2,2-difluorocyclopropyl)ethoxy)imino)-N-ethyl-2-methylbutanamide]
mortality at 200 ppm [1, 3]: 80 to 100%
mortality at 200 ppm [2, 4]: 80 to 100%

CCN(C(=O)CN1CCCC1=O)c1cn(-c2cccnc2)nc1Cl [Compound F124, N-(3-Chloro-1-(pyridin-3-yl)-1H-pyrazol-4-yl)-N-ethyl-2-(2-oxopyrrolidin-1-yl)acetamide]
mortality at 200 ppm [1, 3]: 80 to 100%
mortality at 200 ppm [2, 4]: 80 to 100%

CCN(C(=O)C1CN(C(=O)CCC(F)(F)F)C1)c1cn(-c2cccnc2)nc1Cl [FA15, N-(3-Chloro-1-(pyridin-3-yl)-1H-pyrazol-4-yl)-N-ethyl-1-(4,4,4-trifluorobutanoyl)azetidine-3-carboxamide]
mortality at 200 ppm [1, 3]: 80 to 100%
mortality at 200 ppm [2, 4]: 80 to 100%

CCN(C(=O)CC/C(C)=N/OCC1CC1(F)F)c1cn(-c2cccnc2)nc1Cl (mixture of isomers) [Compound F72, (E/Z)-N-(3-chloro-1-(pyridin-3-yl)-1H-pyrazol-4-yl)-4-(((2,2-difluorocyclopropyl)methoxy)imino)-N-ethylpentanamide]
mortality at 200 ppm [1, 3]: 80 to 100%
mortality at 200 ppm [2, 4]: 80 to 100%

CCN(C(=O)C1CCCN(C(=O)CCC(F)(F)F)C1)c1cn(-c2cccnc2)nc1Cl (stereo not shown) [FA43, N-(3-Chloro-1-(pyridin-3-yl)-1H-pyrazol-4-yl)-N-ethyl-1-(4,4,4-trifluorobutanoyl)piperidine-3-carboxamide]
mortality at 200 ppm [1, 3]: 80 to 100%
mortality at 200 ppm [2, 4]: 80 to 100%

CC(=O)N[C@@H]1C=C[C@H](C(=O)N(C)c2cn(-c3cccnc3)nc2Cl)C1 [Compound F86, (1R,4S)-4-acetamido-N-(3-chloro-1-(pyridin-3-yl)-1H-pyrazol-4-yl)-N-methyl-cyclopent-2-enecarboxamide]
mortality at 200 ppm [1, 3]: 80 to 100%
mortality at 200 ppm [2, 4]: 80 to 100%

CCN(C(=O)CCC1CN(Cc2ccc(C(F)(F)F)cc2)C1=O)c1cn(-c2cccnc2)nc1Cl (stereo not shown) [Compound F129]
mortality at 200 ppm [1, 3]: 0 to 80%
mortality at 200 ppm [2, 4]: 80 to 100%

CCN(C(=O)CCN1CCSC1=O)c1cn(-c2cccnc2)nc1Cl [Compound F88, N-(3-Chloro-1-(pyridin-3-yl)-1H-pyrazol-4-yl)-N-ethyl-3-(2-oxothiazolidin-3-yl)propanamide]
mortality at 200 ppm [1, 3]: 0 to 80%
mortality at 200 ppm [2, 4]: 80 to 100%

CCN(C(=O)CN1CCCCCC1=O)c1cn(-c2cccnc2)nc1Cl [Compound F123, N-(3-Chloro-1-(pyridin-3-yl)-1H-pyrazol-4-yl)-N-ethyl-2-(2-oxoazepan-1-yl)acetamide]
mortality at 200 ppm [1, 3]: 0 to 80%
mortality at 200 ppm [2, 4]: 80 to 100%
